Source: paper PMC10574143, “Exploring the Solubility Limits of Edaravone in Neat Solvents and Binary Mixtures: Experimental and Machine Learning Study” (Molecules, 2023)

Assay: shake-flask solubility measurement, spectrophotometric at 243 nm
Assay type: physicochemical
Protocol: To assess the solubility of EDA in various solvents, excess amounts of EDA were added to test tubes containing either a specific solvent or a binary mixture containing the organic solvent and water in different molar proportions. The saturated solutions were then placed in an Orbital Shaker Incubator ES-20/60 from Biosan (Riga, Latvia) and incubated at various temperatures for 24 h. Four temperature points, ranging from 25 °C to 40 °C with 5 °C intervals, were used for the incubation. The incubator temperature was precisely adjusted to within 0.1 degrees, with a variance of 0.5 degrees during the 24 h cycle. The samples were simultaneously mixed at 60 rev/min. Next, the samples were filtered using syringes equipped with PTFE filters with a pore size of 0.22 µm. To prevent precipitation due to temperature differences between the solutions and instruments, all test tubes, pipette tips, syringes, and filters were preheated. They were placed in the same incubator as the samples and heated to the same temperature before handling. This step was particularly crucial when dealing with elevated temperatures, as the temperature difference could be substantial. After filtration, small quantities of the obtained filtrate were diluted in test tubes containing methanol and measured spectrophotometrically. The density of each solution was measured by weighing a 1 mL volume in 10 mL volumetric flasks using an Eppendorf Reference 2 pipette (Hamburg, Germany) with a systematic error of 6 μL. The RADWAG AS 110 R2.PLUS analytical balance (Radom, Poland) with a precision of 0.1 mg was also used for this purpose. Solubility determination was conducted using the A360 spectrophotometer from AOE Instruments (Shanghai, China). Spectra were recorded in the wavelength range of 190 nm to 400 nm with a resolution of 1 nm. Methanol was used for both diluting the samples and the initial calibration of the spectrophotometer. The analytical wavelength was set at 243 nm, and the absorbance at this wavelength was used to determine the EDA concentration in the samples and subsequently calculate its mole fractions. To ensure accuracy, three separate measurements were performed, and the resulting values were averaged. The calibration curve for EDA was prepared by diluting an initial stock solution and measuring the resulting solutions’ spectrophotometric properties at decreased concentrations. The molar concentrations of the measured solutions ranged from 0.0023 to 0.023 mg/mL. The relationship between the absorbance values at 243 nm and the solution concentration was described by a linear equation A = 85.603 × C − 0.0179, with high linearity denoted by the determination coefficient R^2 equal to 0.9993.

Edaravone solubility (xEDA) (BG-water, x2*=0.0 (water), 25 °C): 0.02 (<±0.01) xEDA, ×102 | Edaravone solubility (xEDA) (BG-water, x2*=0.1, 25 °C): 0.12 (±0.02) xEDA, ×102 | Edaravone solubility (xEDA) (BG-water, x2*=0.2, 25 °C): 0.29 (±0.04) xEDA, ×102 | Edaravone solubility (xEDA) (BG-water, x2*=0.3, 25 °C): 0.53 (±0.03) xEDA, ×102 | Edaravone solubility (xEDA) (BG-water, x2*=0.4, 25 °C): 0.83 (±0.04) xEDA, ×102 | Edaravone solubility (xEDA) (BG-water, x2*=0.5, 25 °C): 1.07 (±0.05) xEDA, ×102 | Edaravone solubility (xEDA) (BG-water, x2*=0.6, 25 °C): 1.27 (±0.03) xEDA, ×102 | Edaravone solubility (xEDA) (BG-water, x2*=0.7, 25 °C): 1.42 (±0.05) xEDA, ×102 | Edaravone solubility (xEDA) (BG-water, x2*=0.8, 25 °C): 1.50 (±0.03) xEDA, ×102 | Edaravone solubility (xEDA) (BG-water, x2*=0.9, 25 °C): 1.51 (±0.04) xEDA, ×102 | Edaravone solubility (xEDA) (DG-water, x2*=0.0 (water), 25 °C): 0.02 (<±0.01) xEDA, ×102 | Edaravone solubility (xEDA) (DG-water, x2*=0.1, 25 °C): 0.09 (±0.01) xEDA, ×102 | Edaravone solubility (xEDA) (DG-water, x2*=0.2, 25 °C): 0.25 (±0.01) xEDA, ×102 | Edaravone solubility (xEDA) (DG-water, x2*=0.3, 25 °C): 0.48 (±0.04) xEDA, ×102 | Edaravone solubility (xEDA) (DG-water, x2*=0.4, 25 °C): 0.74 (±0.03) xEDA, ×102 | Edaravone solubility (xEDA) (DG-water, x2*=0.5, 25 °C): 1.09 (±0.01) xEDA, ×102 | Edaravone solubility (xEDA) (DG-water, x2*=0.6, 25 °C): 1.39 (±0.02) xEDA, ×102 | Edaravone solubility (xEDA) (DG-water, x2*=0.7, 25 °C): 1.65 (±0.05) xEDA, ×102 | Edaravone solubility (xEDA) (DG-water, x2*=0.8, 25 °C): 1.87 (±0.04) xEDA, ×102 | Edaravone solubility (xEDA) (DG-water, x2*=0.9, 25 °C): 1.98 (±0.02) xEDA, ×102 | Edaravone solubility (xEDA) (PG-water, x2*=0.0 (water), 25 °C): 0.02 (<±0.01) xEDA, ×102 | Edaravone solubility (xEDA) (PG-water, x2*=0.1, 25 °C): 0.06 (±0.01) xEDA, ×102 | Edaravone solubility (xEDA) (PG-water, x2*=0.2, 25 °C): 0.15 (±0.01) xEDA, ×102 | Edaravone solubility (xEDA) (PG-water, x2*=0.3, 25 °C): 0.26 (±0.02) xEDA, ×102 | Edaravone solubility (xEDA) (PG-water, x2*=0.4, 25 °C): 0.40 (±0.02) xEDA, ×102 | Edaravone solubility (xEDA) (PG-water, x2*=0.5, 25 °C): 0.54 (±0.02) xEDA, ×102 | Edaravone solubility (xEDA) (PG-water, x2*=0.6, 25 °C): 0.71 (±0.02) xEDA, ×102 | Edaravone solubility (xEDA) (PG-water, x2*=0.7, 25 °C): 0.86 (±0.02) xEDA, ×102 | Edaravone solubility (xEDA) (PG-water, x2*=0.8, 25 °C): 0.99 (±0.02) xEDA, ×102 | Edaravone solubility (xEDA) (PG-water, x2*=0.9, 25 °C): 1.00 (±0.02) xEDA, ×102 | Edaravone solubility (xEDA) (TG-water, x2*=0.0 (water), 25 °C): 0.02 (<±0.01) xEDA, ×102 | Edaravone solubility (xEDA) (TG-water, x2*=0.1, 25 °C): 0.31 (±0.04) xEDA, ×102 | Edaravone solubility (xEDA) (TG-water, x2*=0.2, 25 °C): 0.78 (±0.03) xEDA, ×102 | Edaravone solubility (xEDA) (TG-water, x2*=0.3, 25 °C): 1.28 (±0.07) xEDA, ×102 | Edaravone solubility (xEDA) (TG-water, x2*=0.4, 25 °C): 1.72 (±0.06) xEDA, ×102 | Edaravone solubility (xEDA) (TG-water, x2*=0.5, 25 °C): 2.11 (±0.08) xEDA, ×102 | Edaravone solubility (xEDA) (TG-water, x2*=0.6, 25 °C): 2.54 (±0.08) xEDA, ×102 | Edaravone solubility (xEDA) (TG-water, x2*=0.7, 25 °C): 3.03 (±0.09) xEDA, ×102 | Edaravone solubility (xEDA) (TG-water, x2*=0.8, 25 °C): 3.51 (±0.09) xEDA, ×102 | Edaravone solubility (xEDA) (TG-water, x2*=0.9, 25 °C): 3.58 (±0.06) xEDA, ×102 | mole fraction solubility xEDA (TG-water, x2*=0.9, 25 °C): 3.58 × 10^−2 mole fraction | cosolvency effect in aqueous binary solvent (diethylene glycol (DG)-water, 25 °C): no cosolvency effect was observed | Edaravone solubility (xEDA) (neat 1,2-propanediol (PG), x2*=1.0, 25 °C): 0.85 (±0.01) xEDA, ×102 | Edaravone solubility (xEDA) (neat 1,3-butanediol (BG), x2*=1.0, 25 °C): 1.43 (±0.04) xEDA, ×102 | Edaravone solubility (xEDA) (neat 2,4-dimethylphenol (DMP), 25 °C): 1.88 (±0.05) xEDA, ×102 | Edaravone solubility (xEDA) (neat 2,4-dimethylphenol (DMP), 30 °C): 2.82 (±0.58) xEDA, ×102 | Edaravone solubility (xEDA) (neat 2,4-dimethylphenol (DMP), 35 °C): 4.08 (±0.21) xEDA, ×102 | Edaravone solubility (xEDA) (neat 2,4-dimethylphenol (DMP), 40 °C): 5.65 (±0.25) xEDA, ×102 | Edaravone solubility (xEDA) (neat 4-formylmorpholine (4FM), 25 °C): 1.11 (±0.01) xEDA, ×102 | Edaravone solubility (xEDA) (neat 4-formylmorpholine (4FM), 30 °C): 1.46 (±0.08) xEDA, ×102 | Edaravone solubility (xEDA) (neat 4-formylmorpholine (4FM), 35 °C): 1.76 (±0.19) xEDA, ×102 | Edaravone solubility (xEDA) (neat 4-formylmorpholine (4FM), 40 °C): 2.17 (±0.01) xEDA, ×102 | Edaravone solubility (xEDA) (neat DMSO, 25 °C): 7.58 (±0.32) xEDA, ×102 | Edaravone solubility (xEDA) (neat DMSO, 30 °C): 12.25 (±0.16) xEDA, ×102 | Edaravone solubility (xEDA) (neat DMSO, 35 °C): 20.1 (±0.15) xEDA, ×102 | Edaravone solubility (xEDA) (neat DMSO, 40 °C): 29.81 (±1.14) xEDA, ×102 | mole fraction solubility xEDA (neat DMSO, 40 °C): 29.81 × 10^−2 mole fraction | Edaravone solubility (xEDA) (neat NMP, 25 °C): 3.83 (±0.01) xEDA, ×102 | Edaravone solubility (xEDA) (neat NMP, 30 °C): 4.96 (±0.49) xEDA, ×102 | Edaravone solubility (xEDA) (neat NMP, 35 °C): 6.94 (±0.19) xEDA, ×102 | Edaravone solubility (xEDA) (neat NMP, 40 °C): 8.61 (±0.21) xEDA, ×102 | mole fraction solubility xEDA (neat TEG, 25 °C): 4.63 × 10^−2 mole fraction | mole fraction solubility xEDA (neat TEG, 40 °C): 21.21 × 10^−2 mole fraction | Edaravone solubility (xEDA) (neat diethylene glycol (DG), x2*=1.0, 25 °C): 2.04 (±0.06) xEDA, ×102 | Edaravone solubility (xEDA) (neat diglyme (DIG), 25 °C): 2.05 (±0.02) xEDA, ×102 | Edaravone solubility (xEDA) (neat diglyme (DIG), 30 °C): 2.69 (±0.04) xEDA, ×102 | Edaravone solubility (xEDA) (neat diglyme (DIG), 35 °C): 3.33 (±0.11) xEDA, ×102 | Edaravone solubility (xEDA) (neat diglyme (DIG), 40 °C): 4.16 (±0.06) xEDA, ×102 | Edaravone solubility (xEDA) (neat tetraglyme (TEG), 25 °C): 4.63 (±0.05) xEDA, ×102 | Edaravone solubility (xEDA) (neat tetraglyme (TEG), 30 °C): 8.63 (±0.22) xEDA, ×102 | Edaravone solubility (xEDA) (neat tetraglyme (TEG), 35 °C): 13.05 (±0.19) xEDA, ×102 | Edaravone solubility (xEDA) (neat tetraglyme (TEG), 40 °C): 21.21 (±0.64) xEDA, ×102 | mole fraction solubility xEDA (neat triethylene glycol (TG), 25 °C): 2.75 × 10^−2 mole fraction | Edaravone solubility (xEDA) (neat triethylene glycol (TG), x2*=1.0, 25 °C): 2.75 (±0.08) xEDA, ×102 | Edaravone solubility (xEDA) (neat triglyme (TIG), 25 °C): 1.53 (±0.07) xEDA, ×102 | Edaravone solubility (xEDA) (neat triglyme (TIG), 30 °C): 2.20 (±0.04) xEDA, ×102 | Edaravone solubility (xEDA) (neat triglyme (TIG), 35 °C): 3.11 (±0.17) xEDA, ×102 | Edaravone solubility (xEDA) (neat triglyme (TIG), 40 °C): 4.57 (±0.39) xEDA, ×102
SMILES: CC1=NN(c2ccccc2)C(=O)C1 [Edaravone, 5-methyl-2-phenyl-4H-pyrazol-3-one]
solubility at x2* = 0.9 versus pure solvent (1,2-propanediol (PG)-water, 25 °C): higher solubility compared to pure solvents | solubility at x2* = 0.9 versus pure solvent (1,3-butanediol (BG)-water, 25 °C): higher solubility compared to pure solvents
